# Molecular target: T1, Human dopamine D4 receptor (Homo sapiens, UniProt P21917)
# T1 sequence (P21917 1-419): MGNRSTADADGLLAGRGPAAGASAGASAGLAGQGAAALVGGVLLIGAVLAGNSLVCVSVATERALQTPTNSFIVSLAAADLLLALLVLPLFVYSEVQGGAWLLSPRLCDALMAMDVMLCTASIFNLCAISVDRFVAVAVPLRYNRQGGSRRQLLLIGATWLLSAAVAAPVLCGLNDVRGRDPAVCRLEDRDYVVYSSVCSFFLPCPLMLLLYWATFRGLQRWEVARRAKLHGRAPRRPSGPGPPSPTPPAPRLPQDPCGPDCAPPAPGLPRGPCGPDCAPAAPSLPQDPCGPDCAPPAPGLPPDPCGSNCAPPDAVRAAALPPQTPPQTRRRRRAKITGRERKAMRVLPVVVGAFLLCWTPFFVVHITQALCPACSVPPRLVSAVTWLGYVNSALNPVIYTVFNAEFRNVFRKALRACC
# Assay: G protein independent pathway: β-arrestin recruit ability (PathHunter β-galactosidase)
# Format: cell-based
# Set-up: expressed in transfected cells
# Conditions: β-arrestin recruitment, 90 minutes; 10 μM dopamine = 100%
# Protocol: The activation of the G protein independent pathway was evaluated on the basis of the recruit ability of β-arrestin as follows. Cell lines transfected with D4 receptor genes were seeded in a 384-well plate, and incubated in a CO2 incubator at 37° C. for 24 hours, a solution of the present compound in DMSO was added into the cells, and then the cells were left at 37° C. for 90 minutes. Buffer containing β-galactosidase reaction substance (PathHunter Cell Assay Buffer, DiscoverRx) was added thereto, and luminescent signals in the wells were measured with a FDSS (Hamamatsu Photonics K.K.). […] The maximal activity (Emax) of the present compound was calculated according to the measured luminescent signals. EC50 value was calculated as the concentration of the present compound required to achieve a 50 response.
row,Compound,Maximal activity on D4 receptor (%)
1,"Cc1ncc(CN2CCC(c3ccccn3)CC2)c(N)n1 [Example 5, 2-Methyl-5-[4-(pyridin-2-yl)piperidin-1-ylmethyl]pyrimidin-4-amine]",11%
2,"Cc1ncc(CN2CCC(c3cncc(F)c3)CC2)cn1 [Example 33, 5-[4-(5-Fluoropyridin-3-yl)piperidin-1-ylmethyl]-2-methylpyrimidine]",21%
3,Nc1ncc(CN2CCC(c3cccnc3)CC2)cn1 [Example 37],9%

# Molecular target: T2, Human dopamine D2 receptor (Homo sapiens, UniProt P14416)
# T2 construct: expressed in transfected cells; host or cells: CHO-K1 or HEK293 cells
# T2 sequence (P14416 whole entry): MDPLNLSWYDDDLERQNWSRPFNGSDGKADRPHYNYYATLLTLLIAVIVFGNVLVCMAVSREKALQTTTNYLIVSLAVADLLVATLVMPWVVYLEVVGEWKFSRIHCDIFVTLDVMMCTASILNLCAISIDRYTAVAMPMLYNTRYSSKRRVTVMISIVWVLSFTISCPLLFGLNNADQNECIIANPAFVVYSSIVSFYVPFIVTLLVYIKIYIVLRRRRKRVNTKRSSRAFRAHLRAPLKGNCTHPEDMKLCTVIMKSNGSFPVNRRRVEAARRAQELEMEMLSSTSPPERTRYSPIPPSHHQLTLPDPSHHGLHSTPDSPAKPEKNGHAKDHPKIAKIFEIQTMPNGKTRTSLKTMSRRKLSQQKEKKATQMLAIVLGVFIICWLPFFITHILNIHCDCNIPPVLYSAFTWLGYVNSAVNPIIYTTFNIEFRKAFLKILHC
# Assay: Agonistic/antagonistic activity in G protein dependent pathway (aequorin intracellular calcium luminescence), D2
# Format: cell-based
# Conditions: 0.1 μM; 10 μM dopamine = 100%
# Protocol: (§1) Plasmids encoding each receptor, aequorin and Gα16 were prepared, and the plasmids were transfected into CHO cells (Chinese Hamster Ovary cells) or HEK293 cells (Human Embryonic Kidney 293 cells) to prepare expressing cell lines.
# (§2) The agonistic or antagonistic activity of the present compound in the G protein dependent pathway was evaluated on the basis of intracellular calcium levels as follows. CHO-K1 or HEK293 cell lines transfected with D2, D4, α1A, or α2A receptor genes were seeded in a 384-well plate, and incubated in a CO2 incubator at 37° C. for 24 hours, and then a solution of the present compound in DMSO was added into cells preloaded with coelenterazine to measure the change in luminescent signals with a FDSS (Hamamatsu Photonics K.K.). […] The agonistic activity of the present compound was calculated according to the measured luminescent signals, as the maximal activity (Emax) of the present compound. On the other hand, the antagonistic activity of the present compound was calculated according to the luminescent signals in wells with 10 μM of an endogenous ligand alone defined as 100%, as the inhibitory activity of the present compound to an endogenous ligand. EC50 value was calculated as the concentration of the present compound required to achieve a 50% response, and IC50 was calculated as the concentration of the present compound required to achieve a 50% inhibition of the Emax of an endogenous ligand.
row,Compound,Maximal activity on each receptor (%): D2
1,"Cc1ncc(CN2CCC(c3ccccn3)CC2)c(N)n1 [Example 5, 2-Methyl-5-[4-(pyridin-2-yl)piperidin-1-ylmethyl]pyrimidin-4-amine]",0.19%
2,"Cc1ncc(CN2CCC(c3cncc(F)c3)CC2)cn1 [Example 33, 5-[4-(5-Fluoropyridin-3-yl)piperidin-1-ylmethyl]-2-methylpyrimidine]",0.29%
3,Nc1ncc(CN2CCC(c3cccnc3)CC2)cn1 [Example 37],5.4%

# Same assay, conditions: 0.1 μM; against 10 μM endogenous ligand; read-out: Inhibitory activity on each receptor (%): D2
row,Compound,inhibition at 0.1 µM
1,"Cc1ncc(CN2CCC(c3ccccn3)CC2)c(N)n1 [Example 5, 2-Methyl-5-[4-(pyridin-2-yl)piperidin-1-ylmethyl]pyrimidin-4-amine]",-1.7%
2,"Cc1ncc(CN2CCC(c3cncc(F)c3)CC2)cn1 [Example 33, 5-[4-(5-Fluoropyridin-3-yl)piperidin-1-ylmethyl]-2-methylpyrimidine]",-5.3%
3,Nc1ncc(CN2CCC(c3cccnc3)CC2)cn1 [Example 37],14%

# Same assay, conditions: 1 μM; 10 μM dopamine = 100%
row,Compound,Maximal activity on each receptor (%): D2
1,"Cc1ncc(CN2CCC(c3ccccn3)CC2)c(N)n1 [Example 5, 2-Methyl-5-[4-(pyridin-2-yl)piperidin-1-ylmethyl]pyrimidin-4-amine]",1.1%
2,"Cc1ncc(CN2CCC(c3cncc(F)c3)CC2)cn1 [Example 33, 5-[4-(5-Fluoropyridin-3-yl)piperidin-1-ylmethyl]-2-methylpyrimidine]",1.7%
3,Nc1ncc(CN2CCC(c3cccnc3)CC2)cn1 [Example 37],18%

# Same assay, conditions: 1 μM; against 10 μM endogenous ligand; read-out: Inhibitory activity on each receptor (%): D2
row,Compound,inhibition at 1 µM
1,"Cc1ncc(CN2CCC(c3ccccn3)CC2)c(N)n1 [Example 5, 2-Methyl-5-[4-(pyridin-2-yl)piperidin-1-ylmethyl]pyrimidin-4-amine]",9.9%
2,"Cc1ncc(CN2CCC(c3cncc(F)c3)CC2)cn1 [Example 33, 5-[4-(5-Fluoropyridin-3-yl)piperidin-1-ylmethyl]-2-methylpyrimidine]",1.2%
3,Nc1ncc(CN2CCC(c3cccnc3)CC2)cn1 [Example 37],47%

# Test system: not listed separately
# Assay: Brain penetration study in rat
# Format: in vivo
# Conditions: brain and plasma, unbound brain-to-plasma drug concentration ratio
# Protocol: In this study, the brain penetration of the present compound can be evaluated. Specifically, a 7-week-old SD-type or WKY-type rat received the subcutaneous administration of a solution of the present compound in saline or the oral administration of a suspension of the present compound in methylcellulose. Plasma and brain were collected from the treated rat 0.5 hour, 1 hour or 2 hours after the administration, and then the levels of the present compound in the plasma and the brain were measured by a LC-MS method.
# The protein binding ratios of the present compound to the plasma and the brain were measured by an equilibrium dialysis method.
# The levels of the present compound in the plasma and the brain as well as the plasma and brain protein binding ratios are applied to the following formula, and thus Kp,uu,brain (Unbound brain-to-plasma drug concentration ratio) can be calculated. Kp,uu,brain=(level of the present compound in the brain×(100−brain protein binding ratio (%))/100)/(level of the present compound in the plasma×(100−plasma protein binding ratio (%))/100)
row,Compound,Kp uu
1,"Cc1ncc(CN2CCC(c3ccccn3)CC2)c(N)n1 [Example 5, 2-Methyl-5-[4-(pyridin-2-yl)piperidin-1-ylmethyl]pyrimidin-4-amine]",1.97
2,"Cc1ncc(CN2CCC(c3cncc(F)c3)CC2)cn1 [Example 33, 5-[4-(5-Fluoropyridin-3-yl)piperidin-1-ylmethyl]-2-methylpyrimidine]",0.44
3,Nc1ncc(CN2CCC(c3cccnc3)CC2)cn1 [Example 37],5.51

# Molecular target: T3, human adrenergic α1A receptor (Homo sapiens, UniProt P35348)
# T3 construct: expressed in transfected cells; host or cells: CHO-K1 or HEK293 cells
# T3 sequence (P35348 1-466): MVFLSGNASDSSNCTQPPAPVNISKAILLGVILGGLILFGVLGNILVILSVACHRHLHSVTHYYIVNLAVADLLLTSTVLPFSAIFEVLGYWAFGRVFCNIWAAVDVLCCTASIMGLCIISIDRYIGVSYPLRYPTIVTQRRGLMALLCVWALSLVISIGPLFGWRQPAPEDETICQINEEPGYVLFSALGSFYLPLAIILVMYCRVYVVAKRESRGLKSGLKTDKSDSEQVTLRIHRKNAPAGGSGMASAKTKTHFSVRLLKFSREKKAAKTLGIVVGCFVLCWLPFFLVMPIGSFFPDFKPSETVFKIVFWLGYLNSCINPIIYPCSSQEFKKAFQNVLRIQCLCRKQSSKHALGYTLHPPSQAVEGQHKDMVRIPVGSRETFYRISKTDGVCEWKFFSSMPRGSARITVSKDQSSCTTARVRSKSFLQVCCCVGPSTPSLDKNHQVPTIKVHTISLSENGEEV
# Assay: Agonistic/antagonistic activity in G protein dependent pathway (aequorin intracellular calcium luminescence), α1A
# Format: cell-based
# Conditions: 0.1 μM; 10 μM adrenaline = 100%
# Protocol: as §1, §2
row,Compound,Maximal activity on each receptor (%): α1A
1,"Cc1ncc(CN2CCC(c3ccccn3)CC2)c(N)n1 [Example 5, 2-Methyl-5-[4-(pyridin-2-yl)piperidin-1-ylmethyl]pyrimidin-4-amine]",2.1%
2,"Cc1ncc(CN2CCC(c3cncc(F)c3)CC2)cn1 [Example 33, 5-[4-(5-Fluoropyridin-3-yl)piperidin-1-ylmethyl]-2-methylpyrimidine]",0.4%
3,Nc1ncc(CN2CCC(c3cccnc3)CC2)cn1 [Example 37],0.31%

# Same assay, conditions: 0.1 μM; against 10 μM endogenous ligand; read-out: Inhibitory activity on each receptor (%): α1A
row,Compound,inhibition at 0.1 µM
1,"Cc1ncc(CN2CCC(c3ccccn3)CC2)c(N)n1 [Example 5, 2-Methyl-5-[4-(pyridin-2-yl)piperidin-1-ylmethyl]pyrimidin-4-amine]",2.1%
2,"Cc1ncc(CN2CCC(c3cncc(F)c3)CC2)cn1 [Example 33, 5-[4-(5-Fluoropyridin-3-yl)piperidin-1-ylmethyl]-2-methylpyrimidine]",-34%
3,Nc1ncc(CN2CCC(c3cccnc3)CC2)cn1 [Example 37],-22%

# Same assay, conditions: 1 μM; 10 μM adrenaline = 100%
row,Compound,Maximal activity on each receptor (%): α1A
1,"Cc1ncc(CN2CCC(c3ccccn3)CC2)c(N)n1 [Example 5, 2-Methyl-5-[4-(pyridin-2-yl)piperidin-1-ylmethyl]pyrimidin-4-amine]",−0.1%
2,"Cc1ncc(CN2CCC(c3cncc(F)c3)CC2)cn1 [Example 33, 5-[4-(5-Fluoropyridin-3-yl)piperidin-1-ylmethyl]-2-methylpyrimidine]",0.85%
3,Nc1ncc(CN2CCC(c3cccnc3)CC2)cn1 [Example 37],0.44%

# Same assay, conditions: 1 μM; against 10 μM endogenous ligand; read-out: Inhibitory activity on each receptor (%): α1A
row,Compound,inhibition at 1 µM
1,"Cc1ncc(CN2CCC(c3ccccn3)CC2)c(N)n1 [Example 5, 2-Methyl-5-[4-(pyridin-2-yl)piperidin-1-ylmethyl]pyrimidin-4-amine]",-1.7%
2,"Cc1ncc(CN2CCC(c3cncc(F)c3)CC2)cn1 [Example 33, 5-[4-(5-Fluoropyridin-3-yl)piperidin-1-ylmethyl]-2-methylpyrimidine]",-5.4%
3,Nc1ncc(CN2CCC(c3cccnc3)CC2)cn1 [Example 37],-14%

# Test system: not listed separately
# Assay: PK study in rat (bioavailability)
# Format: in vivo
# Conditions: plasma, oral vs intravenous administration
# Protocol: In this study, the pharmacokinetics of the present compound can be evaluated. Specifically, a 7-week-old SD-type or WKY-type rat received the intravenous administration of a solution of the present compound in saline or the oral administration of a suspension of the present compound in carboxymethylcellulose or methylcellulose. Blood was collected from the rat at each time below.
# Intravenous administration: 5 minutes, 15 minutes, 30 minutes, 1 hour, 2 hours, 4 hours, 6 hours, and 24 hours after administration
# Oral administration: 15 minutes, 30 minutes, 1 hour, 2 hours, 4 hours, 6 hours, and 24 hours after administration
# Plasma was collected from the blood, the levels of the present compound in the plasma were measured by a LC-MS method, and then the pharmacokinetic parameters were calculated on the basis of the level changes.
row,Compound,bioavailability
1,"Cc1ncc(CN2CCC(c3ccccn3)CC2)c(N)n1 [Example 5, 2-Methyl-5-[4-(pyridin-2-yl)piperidin-1-ylmethyl]pyrimidin-4-amine]",16.8%
2,"Cc1ncc(CN2CCC(c3cncc(F)c3)CC2)cn1 [Example 33, 5-[4-(5-Fluoropyridin-3-yl)piperidin-1-ylmethyl]-2-methylpyrimidine]",60.1%
3,Nc1ncc(CN2CCC(c3cccnc3)CC2)cn1 [Example 37],81.7%

# From patent US9732065B2, “Cyclic aminomethyl pyrimidine derivative” (Sumitomo Dainippon Pharma Co., Ltd., priority 2013, dated 2017)
